Data as given in patent publication US11767310B2, “Nicotinamide RIPK1 inhibitors” (AbbVie Inc., priority 2021, dated 2023).
Read-outs that look alike come from different tables or passages of the source.

Columns and labels:
Assay in all cases: Kinase binding screen
ASK2 = ASK2 (Homo sapiens (Human), UniProt O95382); conditions: read-out: Percent Control at 100 nM Compound Concentration
BMPR1B = BMPR1B (Homo sapiens (Human), UniProt O00238); conditions: read-out: Percent Control at 100 nM Compound Concentration
BRAF = BRAF (Homo sapiens (Human), UniProt P15056); conditions: read-out: Percent Control at 100 nM Compound Concentration
Chain of BRAF (P15056 whole entry): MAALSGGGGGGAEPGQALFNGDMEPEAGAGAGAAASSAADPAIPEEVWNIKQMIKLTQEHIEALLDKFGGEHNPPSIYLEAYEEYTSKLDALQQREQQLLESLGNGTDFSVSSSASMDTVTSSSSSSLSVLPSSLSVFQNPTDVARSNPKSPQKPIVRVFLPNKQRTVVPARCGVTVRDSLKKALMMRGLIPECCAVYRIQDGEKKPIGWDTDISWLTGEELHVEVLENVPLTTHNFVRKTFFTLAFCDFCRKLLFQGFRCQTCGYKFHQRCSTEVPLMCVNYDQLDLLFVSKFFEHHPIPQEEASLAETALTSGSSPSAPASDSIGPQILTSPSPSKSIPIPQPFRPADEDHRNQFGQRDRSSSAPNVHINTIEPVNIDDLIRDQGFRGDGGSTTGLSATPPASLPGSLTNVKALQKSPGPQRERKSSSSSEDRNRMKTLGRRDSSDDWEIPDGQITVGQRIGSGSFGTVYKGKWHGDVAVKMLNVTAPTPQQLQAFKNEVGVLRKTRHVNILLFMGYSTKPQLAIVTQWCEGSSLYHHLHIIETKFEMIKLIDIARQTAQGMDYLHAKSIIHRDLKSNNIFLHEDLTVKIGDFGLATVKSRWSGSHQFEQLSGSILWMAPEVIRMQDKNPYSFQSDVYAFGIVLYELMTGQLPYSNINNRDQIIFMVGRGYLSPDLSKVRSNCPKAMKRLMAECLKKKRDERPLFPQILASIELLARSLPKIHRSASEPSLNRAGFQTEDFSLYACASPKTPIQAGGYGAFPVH

CAMK4 = CAMK4 (Homo sapiens (Human), UniProt Q16566); conditions: read-out: Percent Control at 100 nM Compound Concentration
CDK4-cyclinD1 = CDK4-cyclinD1 (Homo sapiens (Human), UniProt P11802); conditions: read-out: Percent Control at 100 nM Compound Concentration
CDK7 = CDK7 (Homo sapiens (Human), UniProt P50613); conditions: read-out: Percent Control at 100 nM Compound Concentration
Chain of CDK7 (P50613 whole entry): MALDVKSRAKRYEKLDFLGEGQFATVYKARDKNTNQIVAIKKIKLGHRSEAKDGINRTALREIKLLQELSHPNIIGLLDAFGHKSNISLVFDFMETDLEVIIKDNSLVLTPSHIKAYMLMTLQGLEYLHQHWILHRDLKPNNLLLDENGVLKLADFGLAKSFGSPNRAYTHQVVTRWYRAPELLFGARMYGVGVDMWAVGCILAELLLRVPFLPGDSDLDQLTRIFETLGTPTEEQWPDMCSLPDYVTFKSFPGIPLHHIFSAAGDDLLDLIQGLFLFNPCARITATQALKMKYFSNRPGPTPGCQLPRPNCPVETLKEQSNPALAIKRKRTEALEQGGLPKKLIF

CDKL5 = CDKL5 (Homo sapiens (Human), UniProt O76039); conditions: read-out: Percent Control at 100 nM Compound Concentration
CIT = CIT (Homo sapiens (Human), UniProt O14578); conditions: read-out: Percent Control at 100 nM Compound Concentration
Chain of CIT (O14578 whole entry): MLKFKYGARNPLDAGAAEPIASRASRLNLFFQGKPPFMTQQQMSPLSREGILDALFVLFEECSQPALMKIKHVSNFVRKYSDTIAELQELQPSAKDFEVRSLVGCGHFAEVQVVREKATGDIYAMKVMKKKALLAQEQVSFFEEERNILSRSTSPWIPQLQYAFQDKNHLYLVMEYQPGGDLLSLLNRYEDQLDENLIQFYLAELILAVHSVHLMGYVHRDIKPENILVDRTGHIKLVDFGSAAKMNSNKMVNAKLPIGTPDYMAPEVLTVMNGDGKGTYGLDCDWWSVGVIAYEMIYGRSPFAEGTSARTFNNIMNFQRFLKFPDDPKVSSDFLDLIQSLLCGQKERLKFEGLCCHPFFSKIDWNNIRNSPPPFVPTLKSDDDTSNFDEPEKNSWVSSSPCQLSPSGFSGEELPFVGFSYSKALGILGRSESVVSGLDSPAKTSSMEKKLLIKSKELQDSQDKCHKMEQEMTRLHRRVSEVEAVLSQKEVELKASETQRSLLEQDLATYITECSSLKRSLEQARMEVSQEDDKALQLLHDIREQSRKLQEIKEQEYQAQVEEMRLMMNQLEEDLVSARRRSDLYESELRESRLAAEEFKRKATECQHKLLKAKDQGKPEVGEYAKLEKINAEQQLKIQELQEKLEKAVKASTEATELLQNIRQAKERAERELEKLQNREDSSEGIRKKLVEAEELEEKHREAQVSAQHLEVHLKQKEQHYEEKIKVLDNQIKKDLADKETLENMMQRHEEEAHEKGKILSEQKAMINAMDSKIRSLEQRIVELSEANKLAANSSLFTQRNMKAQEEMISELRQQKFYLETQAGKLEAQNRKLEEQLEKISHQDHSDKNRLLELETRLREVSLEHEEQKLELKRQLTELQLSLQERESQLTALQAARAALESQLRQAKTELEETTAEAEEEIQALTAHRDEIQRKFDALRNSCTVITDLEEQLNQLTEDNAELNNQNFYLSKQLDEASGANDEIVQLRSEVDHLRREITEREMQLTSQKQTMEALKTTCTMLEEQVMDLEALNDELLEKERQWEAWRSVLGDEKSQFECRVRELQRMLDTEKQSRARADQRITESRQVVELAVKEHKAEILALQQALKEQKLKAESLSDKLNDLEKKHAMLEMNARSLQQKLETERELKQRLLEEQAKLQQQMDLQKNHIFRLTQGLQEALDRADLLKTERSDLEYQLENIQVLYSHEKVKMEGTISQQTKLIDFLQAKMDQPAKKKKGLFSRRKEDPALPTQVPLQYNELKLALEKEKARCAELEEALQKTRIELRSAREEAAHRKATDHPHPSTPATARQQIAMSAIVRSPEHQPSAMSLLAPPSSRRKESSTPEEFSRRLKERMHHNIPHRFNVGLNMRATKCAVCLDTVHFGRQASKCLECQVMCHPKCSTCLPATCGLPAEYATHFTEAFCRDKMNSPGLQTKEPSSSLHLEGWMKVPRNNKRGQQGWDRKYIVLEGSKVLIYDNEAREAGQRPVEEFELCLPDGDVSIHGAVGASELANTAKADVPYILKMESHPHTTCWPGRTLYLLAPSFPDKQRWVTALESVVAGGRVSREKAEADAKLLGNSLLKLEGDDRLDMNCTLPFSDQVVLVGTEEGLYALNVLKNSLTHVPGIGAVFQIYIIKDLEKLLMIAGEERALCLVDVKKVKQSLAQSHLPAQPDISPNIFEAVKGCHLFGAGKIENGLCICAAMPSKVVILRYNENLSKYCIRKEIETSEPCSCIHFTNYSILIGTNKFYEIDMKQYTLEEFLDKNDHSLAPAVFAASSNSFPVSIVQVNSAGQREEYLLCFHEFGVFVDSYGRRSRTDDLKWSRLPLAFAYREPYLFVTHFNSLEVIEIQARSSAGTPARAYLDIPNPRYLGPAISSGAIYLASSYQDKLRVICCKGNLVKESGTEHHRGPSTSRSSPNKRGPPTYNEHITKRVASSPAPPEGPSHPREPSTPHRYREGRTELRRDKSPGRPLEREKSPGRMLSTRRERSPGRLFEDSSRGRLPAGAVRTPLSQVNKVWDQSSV

DLK = DLK (Homo sapiens (Human), UniProt Q12852); conditions: read-out: Percent Control at 100 nM Compound Concentration
EPHA4 = EPHA4 (Homo sapiens (Human), UniProt P54764); conditions: read-out: Percent Control at 100 nM Compound Concentration
ERK2 = ERK2 (Homo sapiens (Human), UniProt P28482); conditions: read-out: Percent Control at 100 nM Compound Concentration
ERK3 = ERK3 (Homo sapiens (Human), UniProt Q16659); conditions: read-out: Percent Control at 100 nM Compound Concentration
FLT3(D835H) = FLT3(D835H) (Homo sapiens (Human), UniProt P36888, D835H); conditions: read-out: Percent Control at 100 nM Compound Concentration
FLT3(ITD,F691L) = system: FLT3(ITD,F691L); set-up: species or system human
GAK = GAK (Homo sapiens (Human), UniProt O14976); conditions: read-out: Percent Control at 100 nM Compound Concentration
[1] = molecular target: JAK2(JH1domain-catalytic) (Homo sapiens (Human), UniProt O60674); conditions: read-out: Percent Control at 100 nM Compound Concentration
MAP3K3 = MAP3K3 (Homo sapiens (Human), UniProt Q99759); conditions: read-out: Percent Control at 100 nM Compound Concentration
MAP4K2 = MAP4K2 (Homo sapiens (Human), UniProt Q12851); conditions: read-out: Percent Control at 100 nM Compound Concentration
MAPKAPK5 = MAPKAPK5 (Homo sapiens (Human), UniProt Q8IW41); conditions: read-out: Percent Control at 100 nM Compound Concentration
Chain of MAPKAPK5 (Q8IW41 whole entry): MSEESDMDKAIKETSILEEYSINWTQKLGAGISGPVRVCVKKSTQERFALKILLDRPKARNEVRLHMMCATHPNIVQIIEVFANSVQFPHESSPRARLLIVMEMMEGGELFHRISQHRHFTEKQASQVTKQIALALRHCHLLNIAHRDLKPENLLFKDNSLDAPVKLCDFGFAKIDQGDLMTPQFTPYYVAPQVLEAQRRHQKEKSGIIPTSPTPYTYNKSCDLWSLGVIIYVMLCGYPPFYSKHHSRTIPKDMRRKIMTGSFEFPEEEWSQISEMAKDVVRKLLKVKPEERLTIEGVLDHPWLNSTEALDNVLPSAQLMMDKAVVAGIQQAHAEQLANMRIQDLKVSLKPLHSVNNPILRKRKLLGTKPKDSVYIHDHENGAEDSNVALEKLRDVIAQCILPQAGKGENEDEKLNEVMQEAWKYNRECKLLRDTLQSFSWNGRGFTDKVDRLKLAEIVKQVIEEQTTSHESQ

PAK3 = PAK3 (Homo sapiens (Human), UniProt O75914); conditions: read-out: Percent Control at 100 nM Compound Concentration
PIK3CA(C420R) = PIK3CA(C420R) (Homo sapiens (Human), UniProt P42336, C420R); conditions: read-out: Percent Control at 100 nM Compound Concentration
PRKCI = PRKCI (Homo sapiens (Human), UniProt P41743); conditions: read-out: Percent Control at 100 nM Compound Concentration
TIE1 = TIE1 (Homo sapiens (Human), UniProt P35590); conditions: read-out: Percent Control at 100 nM Compound Concentration
TTK = TTK (Homo sapiens (Human), UniProt P33981); conditions: read-out: Percent Control at 100 nM Compound Concentration
WNK4 = WNK4 (Homo sapiens (Human), UniProt Q96J92); conditions: read-out: Percent Control at 100 nM Compound Concentration
ZAP70 = ZAP70 (Homo sapiens (Human), UniProt P43403); conditions: read-out: Percent Control at 100 nM Compound Concentration

Chain of ASK2 (O95382 whole entry): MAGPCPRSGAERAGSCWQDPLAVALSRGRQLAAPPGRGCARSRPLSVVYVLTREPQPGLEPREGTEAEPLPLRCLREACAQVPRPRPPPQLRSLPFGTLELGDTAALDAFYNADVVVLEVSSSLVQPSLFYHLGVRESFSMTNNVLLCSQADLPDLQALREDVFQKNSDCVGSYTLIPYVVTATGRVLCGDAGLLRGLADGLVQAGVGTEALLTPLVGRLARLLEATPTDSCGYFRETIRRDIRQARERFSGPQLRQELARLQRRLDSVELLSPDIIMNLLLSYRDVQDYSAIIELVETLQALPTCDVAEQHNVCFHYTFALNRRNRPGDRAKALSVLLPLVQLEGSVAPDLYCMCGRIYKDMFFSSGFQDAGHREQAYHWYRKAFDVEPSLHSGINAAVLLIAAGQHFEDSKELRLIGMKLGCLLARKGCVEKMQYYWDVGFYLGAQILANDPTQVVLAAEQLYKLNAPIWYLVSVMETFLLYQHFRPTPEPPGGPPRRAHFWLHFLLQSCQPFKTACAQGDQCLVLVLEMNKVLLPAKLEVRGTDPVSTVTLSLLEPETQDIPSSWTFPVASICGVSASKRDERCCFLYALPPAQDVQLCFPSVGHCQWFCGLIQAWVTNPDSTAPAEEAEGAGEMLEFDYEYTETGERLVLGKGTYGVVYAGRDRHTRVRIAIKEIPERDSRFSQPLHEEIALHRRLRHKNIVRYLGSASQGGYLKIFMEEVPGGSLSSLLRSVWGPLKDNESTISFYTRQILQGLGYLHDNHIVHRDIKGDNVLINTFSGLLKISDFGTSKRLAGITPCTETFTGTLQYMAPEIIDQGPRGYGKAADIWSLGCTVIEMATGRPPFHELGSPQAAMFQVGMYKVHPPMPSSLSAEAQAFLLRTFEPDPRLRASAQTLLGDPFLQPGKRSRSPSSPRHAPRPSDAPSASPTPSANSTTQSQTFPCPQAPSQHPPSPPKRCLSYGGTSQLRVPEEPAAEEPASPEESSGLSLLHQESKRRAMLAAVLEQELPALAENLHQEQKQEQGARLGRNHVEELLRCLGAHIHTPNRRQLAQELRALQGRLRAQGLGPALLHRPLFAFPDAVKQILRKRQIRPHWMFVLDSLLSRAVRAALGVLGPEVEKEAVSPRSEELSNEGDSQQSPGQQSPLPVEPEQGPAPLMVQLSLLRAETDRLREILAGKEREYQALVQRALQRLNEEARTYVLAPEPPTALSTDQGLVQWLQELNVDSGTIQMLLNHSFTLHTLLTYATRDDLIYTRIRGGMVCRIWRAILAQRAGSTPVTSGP

CN(C[C@@H](O)Cc1ccccc1)C(=O)c1cncc(C#Cc2cnn(C(F)F)c2)c1 [Example 2, (S)-5-((1-(difluoromethyl)-1H-pyrazol-4-yl)ethynyl)-N-(2-hydroxy-3-phenylpropyl)-N-methylnicotinamide]
remaining activity at 0.1 µM (ASK2; ASK2): 100%
remaining activity at 0.1 µM (BMPR1B; BMPR1B): 98%
remaining activity at 0.1 µM (BRAF; BRAF): 100%
remaining activity at 0.1 µM (CAMK4; CAMK4): 100%
remaining activity at 0.1 µM (CDK4-cyclinD1; CDK4-cyclinD1): 100%
remaining activity at 0.1 µM (CDK7; CDK7): 100%
remaining activity at 0.1 µM (CDKL5; CDKL5): 93%
remaining activity at 0.1 µM (CIT; CIT): 98%
remaining activity at 0.1 µM (DLK; DLK): 100%
remaining activity at 0.1 µM (EPHA4; EPHA4): 97%
remaining activity at 0.1 µM (ERK2; ERK2): 100%
remaining activity at 0.1 µM (ERK3; ERK3): 100%
remaining activity at 0.1 µM (FLT3(D835H); FLT3(D835H)): 100%
Percent Control at 100 nM Compound Concentration (FLT3(ITD,F691L)): 98%
remaining activity at 0.1 µM (GAK; GAK): 100%
remaining activity at 0.1 µM ([1]; JAK2(JH1domain-catalytic)): 100%
remaining activity at 0.1 µM (MAP3K3; MAP3K3): 96%
remaining activity at 0.1 µM (MAP4K2; MAP4K2): 88%
remaining activity at 0.1 µM (MAPKAPK5; MAPKAPK5): 94%
remaining activity at 0.1 µM (PAK3; PAK3): 71%
remaining activity at 0.1 µM (PIK3CA(C420R); PIK3CA(C420R)): 83%
remaining activity at 0.1 µM (PRKCI; PRKCI): 96%
remaining activity at 0.1 µM (TIE1; TIE1): 100%
remaining activity at 0.1 µM (TTK; TTK): 100%
remaining activity at 0.1 µM (WNK4; WNK4): 84%
remaining activity at 0.1 µM (ZAP70; ZAP70): 98%

CN(C[C@H](Cc1ccccc1)OP(=O)(O)O)C(=O)c1cncc(C#Cc2cnn(C(F)F)c2)c1 [Example 19, (S)-1-(5-((1-(difluoromethyl)-1H-pyrazol-4-yl)ethynyl)-N-methylnicotinamido)-3-phenylpropan-2-yl dihydrogen phosphate]
remaining activity at 0.1 µM (ASK2): 98%
remaining activity at 0.1 µM (BMPR1B): 99%
remaining activity at 0.1 µM (BRAF): 100%
remaining activity at 0.1 µM (CAMK4): 100%
remaining activity at 0.1 µM (CDK4-cyclinD1): 97%
remaining activity at 0.1 µM (CDK7): 100%
remaining activity at 0.1 µM (CDKL5): 86%
remaining activity at 0.1 µM (CIT): 95%
remaining activity at 0.1 µM (DLK): 100%
remaining activity at 0.1 µM (EPHA4): 96%
remaining activity at 0.1 µM (ERK2): 100%
remaining activity at 0.1 µM (ERK3): 100%
remaining activity at 0.1 µM (FLT3(D835H)): 100%
Percent Control at 100 nM Compound Concentration (FLT3(ITD,F691L)): 97%
remaining activity at 0.1 µM (GAK): 100%
remaining activity at 0.1 µM [1]: 100%
remaining activity at 0.1 µM (MAP3K3): 92%
remaining activity at 0.1 µM (MAP4K2): 83%
remaining activity at 0.1 µM (MAPKAPK5): 96%
remaining activity at 0.1 µM (PAK3): 100%
remaining activity at 0.1 µM (PIK3CA(C420R)): 86%
remaining activity at 0.1 µM (PRKCI): 92%
remaining activity at 0.1 µM (TIE1): 100%
remaining activity at 0.1 µM (TTK): 82%
remaining activity at 0.1 µM (WNK4): 81%
remaining activity at 0.1 µM (ZAP70): 98%
